Tests used:
Format in all cases: in vivo
[1] = system: barnyardgrass (Echinochloa crus-galli); experiment: Test A preemergence soil spray, visual injury rating 0-100; details: 10 days
How it was run: (§1)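 Rating: visual, day 10, untreated plants as reference, 0 no effect to 100 full control. Plants were in loam-sand and were treated either preemergence via directed soil spray or postemergence at the one- to two-leaf stage.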

[2] = system: blackgrass (Alopecurus myosuroides); experiment: as above; details: 10 days
How it was run: as §1

corn (Zea mays) [3] = experiment: as above; details: 10 days
How it was run: as §1

[4] = system: green foxtail (Setaria viridis); experiment: as above; details: 10 days
How it was run: as §1

[5] = system: oat, wild (wild oat, Avena fatua); experiment: as above; details: 10 days
How it was run: as §1

[6] = system: palmer (palmer amaranth, palmer pigweed, Amaranthus palmeri); experiment: as above; details: 10 days
How it was run: as §1

[7] = system: ragweed (common ragweed, Ambrosia artemisiifolia); experiment: as above; details: 10 days
How it was run: as §1

[8] = system: ryegrass, Italian (italian ryegrass, Lolium multiflorum); experiment: as above; details: 10 days
How it was run: as §1

soybean (Glycine max) [9] = experiment: as above; details: 10 days
How it was run: as §1

[10] = system: wheat (Triticum aestivum); experiment: as above; details: 10 days
How it was run: as §1

[11] = system: barnyardgrass (Echinochloa crus-galli); experiment: Test A postemergence application, visual injury rating 0-100
How it was run: as §1

[12] = system: blackgrass (Alopecurus myosuroides); experiment: as above
How it was run: as §1

corn (Zea mays) [13] = experiment: as above
How it was run: as §1

[14] = system: galium (catchweed bedstraw, Galium aparine); experiment: as above; details: Postemergence, 16 g ai/ha, greenhouse 10 days; 0 no effect, 100 complete control
How it was run: as §1

[15] = system: green foxtail (Setaria viridis); experiment: as above
How it was run: as §1

[16] = system: horseweed (Erigeron canadensis); experiment: as above
How it was run: as §1

kochia (Bassia scoparia) = experiment: as above
How it was run: as §1

[17] = system: oat, wild (wild oat, Avena fatua); experiment: as above
How it was run: as §1

[18] = system: palmer (palmer amaranth, palmer pigweed, Amaranthus palmeri); experiment: as above
How it was run: as §1

[19] = system: ragweed (common ragweed, Ambrosia artemisiifolia); experiment: as above
How it was run: as §1

[20] = system: ryegrass, Italian (italian ryegrass, Lolium multiflorum); experiment: as above
How it was run: as §1

soybean (Glycine max) [21] = experiment: as above
How it was run: as §1

[22] = system: wheat (Triticum aestivum); experiment: as above
How it was run: as §1

[23] = system: barnyardgrass (Echinochloa crusgalli); experiment: Test B flooded paddy test, visual plant response rating 0-100; details: 250 g ai/ha, Flood, applied to paddy water, evaluated after 13 days
How it was run: (§2)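 Treatment occurs at the 2-leaf stage by adding compound to floodwater standing 3 cm above the soil, a level kept for the whole test. Plants stay in the greenhouse 13 days before visual comparison with controls.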

[24] = system: ducksalad (Heteranthera limosa); experiment: as above; details: 250 g ai/ha, Flood, applied to paddy water, evaluated after 13 days
How it was run: as §2

rice (Oryza sativa) = experiment: as above; details: 250 g ai/ha, Flood, applied to paddy water, evaluated after 13 days
How it was run: as §2

[25] = system: sedge, umbrella (small-flower umbrella sedge, Cyperus difformis); experiment: as above; details: 250 g ai/ha, Flood, applied to paddy water, evaluated after 13 days
How it was run: as §2

[26] = 62 g ai/ha, 0 = no effect, 100 = complete control
[27] = 62 g ai/ha, postemergence, 10 days, 0 = no effect, 100 = complete control
[28] = Postemergence, 16 g ai/ha, greenhouse 10 days, 0 no effect, 100 complete control

COC(=O)C1=CCC(NC(=O)C2(C)CN(c3cc(Cl)cc(Cl)c3)C(=O)O2)C1 (stereo not shown) [Compound 148]
90: Barnyardgrass plant response rating (0-100) [11, 27]
0: Barnyardgrass plant response rating ([1]; 16 g ai/ha, 0 to 100 scale) | Barnyardgrass plant response rating (0-100) [1, 26] | Blackgrass plant response rating ([2]; 16 g ai/ha, 0 to 100 scale) | Blackgrass plant response rating (0-100) [2, 26] | Corn plant response rating (corn (Zea mays) [3]; 16 g ai/ha, 0 to 100 scale) | Corn plant response rating (0-100) (corn (Zea mays) [3]; [26]) | Foxtail, Green plant response rating ([4]; 16 g ai/ha, 0 to 100 scale) | Foxtail, Green plant response rating (0-100) [4, 26] | Oat, Wild plant response rating ([5]; 16 g ai/ha, 0 to 100 scale) | Oat, Wild plant response rating (0-100) [5, 26] | Pigweed, Palmer plant response rating ([6]; 16 g ai/ha, 0 to 100 scale) | Pigweed, Palmer plant response rating (0-100) [6, 26] | Ragweed plant response rating ([7]; 16 g ai/ha, 0 to 100 scale) | Ragweed plant response rating (0-100) [7, 26] | Ryegrass, Italian plant response rating ([8]; 16 g ai/ha, 0 to 100 scale) | Ryegrass, Italian plant response rating (0-100) [8, 26] | Soybean plant response rating (soybean (Glycine max) [9]; 16 g ai/ha, 0 to 100 scale) | Wheat plant response rating ([10]; 16 g ai/ha, 0 to 100 scale) | Wheat plant response rating (0-100) [10, 26] | Barnyardgrass plant response rating (0 to 100 scale) [11, 28] | Blackgrass plant response rating (0 to 100 scale) [12, 28] | Corn plant response rating (0 to 100 scale) (corn (Zea mays) [13]; [28]) | Foxtail, Green plant response rating (0 to 100 scale) [15, 28] | Horseweed plant response rating (0-100) [16, 27] | Horseweed plant response rating (0 to 100 scale) [16, 28] | Kochia plant response rating (0 to 100 scale) (kochia (Bassia scoparia); [28]) | Oat, Wild plant response rating (0 to 100 scale) [17, 28] | Ragweed plant response rating (0-100) [19, 27] | Ragweed plant response rating (0 to 100 scale) [19, 28] | Ryegrass, Italian plant response rating (0 to 100 scale) [20, 28] | Soybean plant response rating (0 to 100 scale) (soybean (Glycine max) [21]; [28]) | Plant response rating, Barnyardgrass (0 to 100 scale, 0 is no effect and 100 is complete control) [23] | Plant response rating, Ducksalad (0 to 100 scale, 0 is no effect and 100 is complete control) [24] | Plant response rating, Rice (0 to 100 scale, 0 is no effect and 100 is complete control) (rice (Oryza sativa)) | Plant response rating, Sedge, Umbrella (0 to 100 scale, 0 is no effect and 100 is complete control) [25]
10: Oat, Wild plant response rating (0-100) [17, 27] | Pigweed, Palmer plant response rating (0 to 100 scale) [18, 28] | Wheat plant response rating (0 to 100 scale) [22, 28]
50: Ryegrass, Italian plant response rating (0-100) [20, 27] | Soybean plant response rating (0-100) (soybean (Glycine max) [21]; [27])
20: Soybean plant response rating (0-100) (soybean (Glycine max) [9]; [26])
70: Blackgrass plant response rating (0-100) [12, 27] | Corn plant response rating (0-100) (corn (Zea mays) [13]; [27])
80: Kochia plant response rating (0-100) (kochia (Bassia scoparia); [27]) | Pigweed, Palmer plant response rating (0-100) [18, 27]
30: Foxtail, Green plant response rating (0-100) [15, 27] | Wheat plant response rating (0-100) [22, 27]
40: Galium plant response rating (0 to 100 scale) [14]

— patent US20260285850A1, “SUBSTITUTED OXAZOLIDINONES AND IMIDAZOLINONES AS HERBICIDES” (FMC CORPORATION, priority 2023, published 2026)
